The values that follow come from patent publication US20190375764A1, “SALTS OF A HETEROCYCLIC COMPOUND AND CRYSTALLINE FORMS, PROCESSES FOR PREPARING, THERAPEUTIC USES, AND PHARMACEUTICAL COMPOSITIONS THEREOF” (Sunovion Pharmaceuticals Inc., priority 2018, published 2019).

Entries after “also recorded” stand apart in the source; their conditions may differ.

What all share (format): physicochemical
Data set [1] in a line: Dynamic vapor sorption (DVS) moisture sorption isotherm. Particulars: for hygroscopicity: result of DVS, in words. On the procedure:
DVS moisture sorption isotherms were generated using a Hiden Analytical IGA-sorp moisture sorption analyzer. Samples were run as received without pre-analysis drying. Each sample was equilibrated between about 30 and 120 minutes at each relative humidity (RH) step. Temperature was fixed at about 25° C. and the relative humidity steps (0 to 95% RH) were in 5-10% increments. Sample sizes ranged from 3 to 30 mg. After DVS measurement, XRPD was measured in order to check the solid form. Dynamic Vapor sorption (DVS) moisture sorption isotherms were generated using IGA-sorp moisture sorption analyzer (Hiden Analytical). Sample measurements were run without drying before analyses. XRPD was measured in order to check any changes of the solid form after the moisture sorption/desorption. The measurement condition is shown below: • Time at each RH steps: From 30 to 120 minutes • Relative humidity steps: 5 or 10% steps • Temperature: 25° C.

Data set [2] is described as follows: Temperature controlled XRPD (crystal form on heating). As to conditions: heating up to melting. On the procedure: Temperature controlled XRPD was measured by the X'pert-MPD with an Anton Paar TCU 100 Temperature Control Unit. Sample was measured from 30° C. to 250° C. or 270° C. with 10° C. increments. Measurement conditions were as follows: range: 4-30°, step: 0.017°, time per step: 100 s.
FT-Raman, XRPD, DSC, TGA, and DVS instruments and techniques are similar to those in Example 3. Temperature controlled XRPD was measured by X'pert-Pro MPD (Spectris) with TCU 100 Temperature Control Unit (Anton Paar). The temperature of the sampling stage was increased step by step as programmed and XRPD patterns of sample were measured at each step. The measurement condition is shown below: • Range angle: From 4 to 30° • Step size: 0.017° • Time per step: 100 s

Data set [3] is described as follows: Crystal form stability on humidity, storage and drying (XRPD / FT-Raman). Particulars: for crystal form before and after DVS measurement (XRPD): moisture sorption/desorption. On the procedure:
DVS moisture sorption isotherms were generated using a Hiden Analytical IGA-sorp moisture sorption analyzer. Samples were run as received without pre-analysis drying. Each sample was equilibrated between about 30 and 120 minutes at each relative humidity (RH) step. Temperature was fixed at about 25° C. and the relative humidity steps (0 to 95% RH) were in 5-10% increments. Sample sizes ranged from 3 to 30 mg. After DVS measurement, XRPD was measured in order to check the solid form. FT-Raman analyses were performed by using MultiRAM (Bruker Optics). Each suspension or dry powder sample was measured from out of glass vial. The measurement condition is shown below: • Excitation wavelength: 1064 nm • Laser power: 500 mW • Wavenumber: 4 cm^−1 • Sample scan: 128 times X-ray Powder Diffraction (XRPD) spectra were obtained by X'pert Pro MPD (Spectris). X-rays was generated with Cu Kα radiation. The powder samples were put on the reflection free sample plate. The XRPD patterns were analyzed by HighScorePlus. The measurement condition is shown below: • Range angle: From 4 to 30°, to 40° and to 65° (2θ) • Step size: 0.017° • Time per step: 100 s Dynamic Vapor sorption (DVS) moisture sorption isotherms were generated using IGA-sorp moisture sorption analyzer (Hiden Analytical). Sample measurements were run without drying before analyses. XRPD was measured in order to check any changes of the solid form after the moisture sorption/desorption. The measurement condition is shown below: • Time at each RH steps: From 30 to 120 minutes • Relative humidity steps: 5 or 10% steps • Temperature: 25° C.

The mark [4] stands for this setting: humidity increased from 0% RH to 95% RH.

For `CNC[C@H]1OCCn2nc3ccccc3c21.O=S(=O)(O)c1ccccc1` [Form BA, (R)-1-(3,4-dihydro-1H-[1,4]oxazino[4,3-b]indazol-1-yl)-N-methylmethanamine benzenesulfonate], the “weight gain (DVS)” value is “about 1%” in data set [1] (at 90% RH, another batch of Form BA); “about 2%” in data set [1] (at 90% RH, one batch of Form BA); “about 2%” in data set [1] (at 95% RH); “about 2%” in data set [1] (at 95% RH, another batch of Form BA); “about 8%” in data set [1] (at 95% RH, one batch of Form BA). Moreover, the hygroscopicity entry in data set [1] (benzenesulfonate) was “less hygroscopicity; also recorded: good hygroscopicity behavior”; in data set [1] (listed as besylate, benzenesulfonate), “less hygroscopicity”. Further, the “transformation of crystal form, temperature controlled XRPD” value (shortened to “transformation of crystal form”) in data set [2] is recorded as “not transformed to any other polymorph”.
Turning to `CNC[C@H]1OCCn2nc3ccccc3c21.O=C(O)/C=C/C(=O)O` [Form FA, (R)-1-(3,4-dihydro-1H-[1,4]oxazino[4,3-b]indazol-1-yl)-N-methylmethanamine fumarate], in data set [2], the “transformation of crystal form” value is “not transformed to any other polymorph”.
On to `CNC[C@H]1OCCn2nc3ccccc3c21.O=C(O)/C=C/C(=O)O` [Form FB, (R)-1-(3,4-dihydro-1H-[1,4]oxazino[4,3-b]indazol-1-yl)-N-methylmethanamine fumarate], for which the “weight gain (DVS)” value in data set [1] (at over 75% RH) is “about 5%”. Besides, the “crystal form after storage under humidity” value in data set [3] (75% RH overnight (NaCl water suspension)) is “Form FA was observed”. Moreover, the “crystal form under dry condition or heated” value in data set [3] (dry condition or heated, quickly transformed back to hydrous form in the air) is given as “anhydrous form can be obtained”.
Take `CNC[C@H]1OCCn2nc3ccccc3c21.Cl` [Form HA, (R)-1-(3,4-dihydro-1H-[1,4]oxazino[4,3-b]indazol-1-yl)-N-methylmethanamine hydrochloride]: the “weight gain (DVS)” value in data set [1] (at 95% RH) is on record as “over 100%”. In data set [1] (hydrochloride), the hygroscopicity result was “Highly hygroscopic”. Moreover, the “crystal form before and after DVS measurement (XRPD)” value in data set [3] (hydrochloride) is on record as “transformed to Form HC mixed with an unidentified polymorph”.
In the case of `CNC[C@H]1OCCn2nc3ccccc3c21.Cl` [Form HB, (R)-1-(3,4-dihydro-1H-[1,4]oxazino[4,3-b]indazol-1-yl)-N-methylmethanamine hydrochloride], the “crystal form stability on isolation” value in data set [3] (observed only in a suspension state, filtrated and dried, hydrochloride) was “transformed to Form HC or Form HA; also recorded: Not stable”.
Take `CNC[C@H]1OCCn2nc3ccccc3c21.Cl` [Form HC, (R)-1-(3,4-dihydro-1H-[1,4]oxazino[4,3-b]indazol-1-yl)-N-methylmethanamine hydrochloride]: the “weight gain (DVS)” value in data set [1] (between 60% RH and 70% RH (Form HC transformed to Form HD)) was 6.5%; in data set [1] (setting [4]), 9.3%. The hygroscopicity entry in data set [1] (hydrochloride) is “hygroscopic”. In addition, in data set [3] (75% RH for 1 day, saturated sodium chloride water), the “crystal form after storage at high-humid condition (Raman)” value is “transformed to Form HD”. Further, in data set [3] (humidity level of more than 70% RH), the crystal form transformation entry is on record as “Transformed to Form D”. Further, the “crystal form before and after DVS measurement (XRPD)” value in data set [3] (hydrochloride) was “basically stable”.
For `CNC[C@H]1OCCn2nc3ccccc3c21.Cl` [Form HD, (R)-1-(3,4-dihydro-1H-[1,4]oxazino[4,3-b]indazol-1-yl)-N-methylmethanamine hydrochloride], the crystal form transformation result in data set [3] (at room temperature) is recorded as “Transformed to Form C”.
For the compound `CNC[C@H]1OCCn2nc3ccccc3c21.Cc1ccc(S(=O)(=O)O)cc1` [Form TA, (R)-1-(3,4-dihydro-1H-[1,4]oxazino[4,3-b]indazol-1-yl)-N-methylmethanamine tosylate], the entries for the “weight gain (DVS)” value in data set [1] (at 95% RH) and in data set [1] (setting [4]) were “about 1%” and around 1%, respectively. Also, the hygroscopicity result was “less hygroscopicity” in data set [1] (listed as Tosylate, tosylate); “less hygroscopicity” in data set [1] (listed as tosylate, tosylate); “less hygroscopicity; also recorded: good hygroscopicity behavior; also recorded: non-hygroscopicity” in data set [1] (tosylate). Further, in data set [2] (tosylate), the “transformation of crystal form” value was “not transformed to any other polymorph; also recorded: stable in terms of the crystal form and not transformed to another form until the melting point”. For the same compound, the “crystal form before and after DVS measurement (XRPD)” value in data set [3] is “no changes of the crystal form”.
Take `CNC[C@H]1OCCn2nc3ccccc3c21.O=C(O)/C=C/C(=O)O` [fumarate, (R)-1-(3,4-dihydro-1H-[1,4]oxazino[4,3-b]indazol-1-yl)-N-methylmethanamine fumarate]: the hygroscopicity result in data set [1] is reported as “no hygroscopicity”.
